Data from patent US20120328713A1, “Articles of Manufacture with Improved Anti-microbial Properties” (priority 2009, published 2012).

How the values were obtained:
[1] = system: bacterial canker (Clavibacter michiganensis pv. michiganensis); assay: Field trial, foliar spray against bacterial canker in tomatoes (Example 19); format: in vivo, tomatoes (Lycopersicon esculentum); conditions: after three treatment sprays; full dose
Procedure: (§1) Silver (III) periodate was tested as a bactericidal foliar spray treatment against bacterial canker (Clavibacter michiganensis pv. michiganensis) in tomatoes (Lycopersicon esculentum).
(§2) See Example 18 for Preparation of Tomato Seed; Preparation of Field; Seeding; Plot Maintenance; Preparation of Spray Treatment Solutions and Inoculum; Spray Treatment Procedure; and Data Collection.

[2] = system: bacterial canker (Clavibacter michiganensis pv. michiganensis); assay: Field trial, foliar spray against bacterial canker in tomatoes (Example 20); format: in vivo, tomatoes (Lycopersicon esculentum)
Procedure: as §1, §2

[3] = system: bacterial speck (Pseudomonas syringae pv. tomato); assay: Field trial, foliar spray against bacterial speck in tomatoes (Example 18); format: in vivo, tomatoes (Lycopersicon esculentum); conditions: after three treatment sprays
[4] = system: Pseudomonas aeruginosa biofilms; assay: Log reduction and MBEC assays on biofilms; format: cell-based; conditions: 4 hours
[5] = Stability of partially dehydrated sodium diperiodatoargentate in the presence of saline; format: physicochemical; conditions: compared with the fully hydrated compound
Procedure: Fully hydrated sodium diperiodatoargentate was made, ground using a mortar and pestle, and spread in an even thin layer in a pre-heated (120° C.) non-reactive container (e.g. glass or ceramics). The thin layer was necessary to prevent areas of poor heat transfer. The container was then placed in an oven at 120° C. for 15 minutes. After 15 minutes, the sample was removed from the oven and transferred to a sealed container (glass vial), which was then stored in a dessicator in the dark at room temperature to prevent the material from adsorbing water.
Relative to the fully hydrated sodium diperiodatoargentate, the partially dehydrated sodium diperiodatoargentate is darker in color and is a much finer powder (which will be advantageous for incorporation into polymers).

P. aeruginosa ATCC 27853 = assay: Silver (III) periodate efficacy testing in the presence of Cl-, SO4 2-, and PO4 3-; format: cell-based; conditions: 30 minutes, 1.5-200 ppm
Procedure: Silver (III) periodate was tested for efficacy in water, 1% NaCl, 1% K2SO4, and 1% K2HPO4 solutions, and compared with silver nitrate. The test solutions were tested against P. aeruginosa ATCC 27853. The challenge time was 30 minutes. Silver (III) periodate and silver nitrate were tested at range of 1.5-200 ppm.

[6] = system: Escherichia coli (ATCC 25922); assay: MBEC P&G assay in dilutions of feces; format: cell-based
Procedure: The challenge time was 4 hours. The tested concentration range for both silver compounds was 500 to 7.8 ppm.

[7] = system: Escherichia coli (ATCC 25922); assay: MBEC P&G assay in dilutions of urine; format: cell-based
Procedure: (§3) The effects of silver (III) periodate and silver nitrate in different dilutions of urine (0.001%, 0.01%, 0.1%, 1%, 10%, 50%) using the MBEC™ P&G assay were tested against Escherichia coli (ATCC 25922)The challenge time was 4 hours. The tested concentration range for both silver compounds was 500 to 7.8 ppm.

[8] = system: Escherichia coli ATCC 25922; assay: MBEC P&G assay in dilutions of human serum; format: cell-based
Procedure: (§4) The effects of silver (III) periodate and silver nitrate were tested in different dilutions of human serum (0.001%, 0.01%, 0.1%, 1%, 10%, 50%) using the MBECTM P&G assay against relevant clinical human pathogens Escherichia coli, Staphylococcus aureus (MRSA), and Candida albicans. The challenge time was 4 hours. The tested concentration range for the silver compounds was 500 to 7.8 ppm.

[9] = system: Candida albicans ATCC 28367; assay: MBEC P&G assay in dilutions of human serum; format: cell-based; conditions: all concentrations of human serum
Procedure: as §4

[10] = system: Staphylococcus aureus (MRSA) 456; assay: MBEC P&G assay in dilutions of human serum; format: cell-based
Procedure: as §4

[11] = system: Escherichia coli (ATCC 25922); assay: MBEC P&G assay in dilutions of mucin; format: cell-based
Procedure: as §3, with “mucin (2.0%, 1.0%, 0.5%, 0.25%, 0.12%, 0.06%) were tested” for “urine (0.001%, 0.01%, 0.1%, 1%, 10%, 50%)”, “assay” for “assay were tested”

Compound: oxysilver nitrate [reference compound]
- disease severity on foliage [1]: best at reducing disease severity on foliage
- disease severity on foliage ([2]; after three treatment sprays, low and high dose): best at reducing disease severity on foliage
- disease severity on foliage ([2]; after two treatment sprays, high dose): best at reducing disease severity on foliage
- disease severity on foliage [3]: best at reducing disease severity on foliage

Compound: sodium diperiodatoargentate
- kill of biofilms ([4]; 200 ppm, p<0.05): significantly higher kill than the fully hydrated sodium diperiodatoargentate
- kill of biofilms ([4]; all other concentrations (1.56 ppm to 200 ppm range)): no significant differences
- stability in the presence of saline [5]: same level of stability as the fully hydrated compound

Compound: O=[N+]([O-])[O-].[Ag+] [silver nitrate, reference compound]
- killing (P. aeruginosa ATCC 27853; in the presence of 1% NaCl or 1% K2HPO4): unable to kill at any of the tested concentrations
- killing (P. aeruginosa ATCC 27853; no salt and 1% K2SO4): effective at killing all the cells for the entire challenge range
- MBC, effective level ([6]; 1.56% feces): < 7.8 ppm
- MBC, effective level ([6]; 3.13% feces): < 7.8 ppm
- MBC, effective level ([6]; 6.25% feces): < 7.8 ppm
- MBC, effective level ([6]; 12.5% feces): 15.6 ppm
- MBC, effective level ([6]; 25% feces): 31.25 ppm
- MBC, effective level ([6]; 50% feces): 62.5 ppm
- MBEC effectiveness compared with silver(III) periodate ([6]; in the presence of feces): more effective than silver(III) periodate in higher concentrations of feces but less effective in lower concentrations
- MBC cut-off point ([7]; 50.0% urine): 31.25 ppm
- MBC cut-off point ([7]; 100% urine): 62.5 ppm
- log reduction ([7]; 500 and 250 ppm, all tested concentrations of urine): approximately equal log reductions
- log reduction compared with the other compound ([7]; compound concentrations of 125 ppm and below): larger log reduction in the higher concentrations of urine
- log reduction, trend with compound concentration ([8]; human serum 1% or 0.001%): no effect on the log reduction
- log reduction, trend with compound concentration ([8]; human serum 50%, 10%, and 0.1%): log reductions decreased significantly with a decrease in the concentration of silver nitrate
- log reduction, trend with compound concentration [9]: Log reductions decreased with a decrease in concentration of silver nitrate
- log reduction compared with the other compound ([10]; 0.001% human serum, 500 ppm): higher log reduction only at 500 ppm with a two magnitude difference
- killing activity ([10]; 0.1% and 0.01% human serum): no significant killing activity
- log reduction compared with the other compound ([11]; mucin 0.5% and lower, higher compound concentrations): better log reductions
- log reduction, trend with compound concentration ([11]; regardless of the concentration of mucin): the lower the concentration of silver nitrate, the lower the log reduction was
